Source: US20050118290A1, “Compositions and method for treatment of steroid/nuclear receptor-mediated diseases” (University of Singapore, priority 2003, published 2005)

Key:
[1] = molecular target: T1, human estrogen receptor ERα (Homo sapiens, UniProt P03372); assay: ERα MMTV-ERE-LUC reporter gene assay in HeLa cells; format: cell-based
T1 construct: expressed in transfected cells; host or cells: HeLa
T1 sequence (P03372 1-595): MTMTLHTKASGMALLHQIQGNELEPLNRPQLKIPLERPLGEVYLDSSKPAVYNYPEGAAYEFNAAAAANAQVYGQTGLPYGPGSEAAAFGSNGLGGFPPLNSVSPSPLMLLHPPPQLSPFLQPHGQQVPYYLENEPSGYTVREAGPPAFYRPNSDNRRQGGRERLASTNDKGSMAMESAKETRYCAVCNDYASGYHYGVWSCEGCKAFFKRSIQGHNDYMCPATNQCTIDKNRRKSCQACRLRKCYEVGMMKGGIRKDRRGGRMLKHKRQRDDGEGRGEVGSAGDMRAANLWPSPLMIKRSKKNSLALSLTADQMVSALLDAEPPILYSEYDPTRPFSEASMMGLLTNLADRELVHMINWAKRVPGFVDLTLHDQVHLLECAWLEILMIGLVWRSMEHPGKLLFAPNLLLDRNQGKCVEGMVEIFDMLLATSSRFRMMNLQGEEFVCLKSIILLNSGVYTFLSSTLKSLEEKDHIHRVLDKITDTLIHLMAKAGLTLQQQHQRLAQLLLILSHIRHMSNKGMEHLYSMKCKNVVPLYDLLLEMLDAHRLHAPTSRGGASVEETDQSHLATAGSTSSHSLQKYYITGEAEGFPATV
Protocol: ERα and ERβ activity were assayed using plasmids encoding either ERα or ERβ co-transfected with the ERE-LUC reporter gene. To assay estrogen receptor agonist activity, HeLa cells were transiently co-transfected with two plasmids (Tcherepanova, et al., 2000) using Lipofectamine. The first plasmid comprised DNA encoding human estrogen receptor (either ERα or ERβ), and the second plasmid comprised an estrogen-driven reporter system comprising: a luciferase reporter gene (LUC) whose transcription is under the control of upstream regulatory elements comprising 4 copies of the vitellogenin estrogen response element (ERE) cloned into the Mouse Mammary Tumor Virus (MMTV) promoter (the full name of the reporter system being ‘MMTV-ERE-LUC’).
AR, PR, GR and ERα and […] were determined by comparing luciferase activity in test cells with control cells exposed to vehicle (i.e., ethanol or methanol) only, analogous to the determination of PPAR activity as described in the previous examples.

PPARγ = molecular target: T2, PPARγ (Homo sapiens, UniProt P37231); assay: Chimeric Gal4DBD-PPARγLBD receptor / UASg-luciferase reporter gene assay in HeLa cells; format: cell-based
T2 construct: expressed in transfected cells; host or cells: HeLa
T2 sequence (P37231 238-503 limits assumed): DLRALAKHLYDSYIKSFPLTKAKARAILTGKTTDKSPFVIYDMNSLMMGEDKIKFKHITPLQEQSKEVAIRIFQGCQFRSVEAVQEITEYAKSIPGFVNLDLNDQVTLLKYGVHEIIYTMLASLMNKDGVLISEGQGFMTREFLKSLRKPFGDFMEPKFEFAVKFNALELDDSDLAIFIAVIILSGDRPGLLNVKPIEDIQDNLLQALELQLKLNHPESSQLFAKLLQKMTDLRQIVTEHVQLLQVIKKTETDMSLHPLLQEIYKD
Source text: In an example of such a reporter gene assay, a plasmid containing chimeric Ga14DBD-PPARLBD receptor cDNA was constructed by excising the ligand binding domain (LBD) of full length PPARγ and PPARα and ligating the resulting fragments in frame to the Ga14-DNA binding domain (DBD) of Saccharomyces cerevisiae in a pM vector (Clontech). Specifically, to construct Ga14DBD-PPARγLBD plasmid, pSG5 expression vector (Stratagene) containing full length PPARγ was excised with Rsa I and blunt ligated to Hind III site of pMGa14DBD expression plasmid (Clontech). To construct Ga14DBD-PPARαLBD plasmid, pSG5 expression vector (Stratagene) containing full length PPARα was excised with BstU I and BamH I and blunt-end ligated in frame to BamH I site of pMGa14DBD expression plasmid (Clontech). […] Ga14 DBD binds very strongly to the exogenous UASg promoter, thereby giving rise to a sensitive and specific assay. To measure PPARγ and PPARα agonist activity, HeLa cells were grown in 24-well microtiter plates and then transiently co-transfected with the two plasmids (chimeric PPAR receptor and UASg reporter gene) using Lipofectamine (Invitrogen). […] Concurrently, cells exposed to known PPAR ligands served as positive controls. Replicate wells, exposed to the vehicle solvent (i.e., ethanol or methanol) in which herbal extracts were dissolved, were used as negative controls. After the 40 hr incubation period, cells were rinsed with phosphate buffered saline (PBS), lysis buffer was added, and cell lysates were collected for measurement of luciferase activity using a luminometer. […] All data points are in triplicate. The data points represent the mean of triplicate wells. Luciferase activity in such an assay accurately reflects the activity of any ligands on PPARγ or PPARα.

Structure (SMILES)	ERα activity comparable to % maximal activity of Estradiol ([1]; 30×10^−6 g/ml)	maximal fold increase in ERα activity ([1]; 30×10^−6 g/ml)	Luciferase activity (Fold over vehicle ± SE) ERα/Estradiol (1 × 10^−9M) ([1]; calycosin 3 ×10^−6 g/mL)	Luciferase activity (Fold over vehicle ± SE) ERα/Estradiol (1 × 10^−9M) ([1]; calycosin 10 ×10^−6 g/mL)	Luciferase activity (Fold over vehicle ± SE) ERα/Estradiol (1 × 10^−9M) ([1]; calycosin 30 ×10^−6 g/mL)	increase of the activity of maximal doses of estradiol on ERα ([1]; with estradiol 1×10^−9M)	PPARγ activity comparable to % maximal activity of pioglitazone (PPARγ; 30×10^−6 g/ml)	maximal fold PPARγ activity (PPARγ; 30×10^−6 g/ml)	Luciferase activity (Fold over vehicle ± SE) PPARγ/Pioglitazone (30 × 10^−6M) (PPARγ; calycosin 3 ×10^−6 g/mL)	Luciferase activity (Fold over vehicle ± SE) PPARγ/Pioglitazone (30 × 10^−6M) (PPARγ; calycosin 10 ×10^−6 g/mL)	Luciferase activity (Fold over vehicle ± SE) PPARγ/Pioglitazone (30 × 10^−6M) (PPARγ; calycosin 30 ×10^−6 g/mL)	increase of the activity of maximal doses of PPARγ agonist (PPARγ; with pioglitazone 30×10^−6M)	ERα activity comparable to % maximal activity of Estradiol ([1]; 5×10^−6 g/ml)	maximal fold increase in ERα activity ([1]; 5×10^−6 g/ml)	PPARγ activity comparable to % maximal activity of pioglitazone (PPARγ; 20×10^−6 g/m)	maximal fold PPARγ activity (PPARγ; 20×10^−6 g/m)
COc1ccc(-c2coc3cc(O)ccc3c2=O)cc1O [calycosin, 3′,7-Dihydroxy-4′-methoxyisoflavone]	~50%	20 fold	118 ± 2.18 Fold	127 ± 6.3 Fold	114 ± 4.18 Fold	2.9 fold	~50%	40 fold	105 ± 10.7 Fold	162 ± 28.5 Fold	253 ± 30.7 Fold	3 fold				
O=c1c(-c2ccc(O)cc2)coc2cc(O)ccc12 [daidzein]													~100%	20 fold	~22%	20 fold
